Experimental data from BindingDB's records for PubMed 34147747 (n/a, 2021).

Key:
[1] = biological target: corticotropin-releasing factor receptor (rat); assay: Binding affinity to rat CRF receptor assessed as inhibition constant
[2] = Binding affinity to CRF (unknown origin) receptor assessed as inhibition constant

Structure (SMILES) | Ki [1] [nM] | Ki [2] [nM]
CCCC(CCC)c1c(CC)nn2c(-c3ccc(Cl)cc3Cl)nc(C)nc12 | 1 | –
CCCC(COC)c1c(CC)nn2c(-c3ccc(Cl)cc3Cl)nc(C)nc12 (stereo not given) | 1.4 | –
CCCC(COC)c1c(CC)nn2c(-c3cc(OC)c(OC)cc3Cl)nc(C)nc12 (stereo not given) | 2 | –
CCCC(C)c1c(CC)nn2c(-c3cc(OC)c(OC)cc3Cl)nc(C)nc12 (stereo not given) | 2.6 | –
CCCC(CCC)c1c(CC)nn2c(-c3cc(OC)c(OC)cc3Cl)nc(C)nc12 | – | 0.7
